Test results taken from patent US4794115A, “Method of treating hyperlipemia” (Terumo Corporation, priority 1985, dated 1988).

Test system: Wistar-King male rats
Assay: Serum total cholesterol and triglycerides in cholesterol/cholic acid/corn oil-loaded rats after 7 days oral administration
Type: in vivo
Details: once a day for 7 days, 4 hours after last administration, mean of 6 rats; for Serum lipid level, total cholesterol: control 210.0; for Serum lipid level, triglyceride: control 621.7
Protocol: Wistar-King male rats weighing 170 g are orally administered with 5% acacia gum suspension of the compound obtained in Example 1 or 2. Thirty minutes thereafter, a mixture of 10% cholesterol, 1% cholic acid and corn oil is orally administered at a dose of 10 ml/kg.
The above-described administration is made once a day for consecutive 7 days, and 4 hours after the last administration blood is drawn from the abdominal large artery of the rats under ether anesthesia. The blood is centrifuged at 1630×g at 4° C. for 10 min. to isolate serum. Measurements were made on serum levels of total cholesterol and triglycerides by means of serum lipid reagents, V-cholestase (Nissui, trade name for the total cholesterol) and V-Triglase (Nissui, trade name for the triglycerides). Results are shown in Table 1, in which mean values for a group of 6 animals are shown.

Structure (SMILES) | Serum lipid level, total cholesterol (dose 1.2 mM/kg) | Serum lipid level, triglyceride (dose 1.2 mM/kg) | Serum lipid level, total cholesterol (dose 2.4 mM/kg) | Serum lipid level, triglyceride (dose 2.4 mM/kg)
CC/C=C\C/C=C\C/C=C\CCCCCCCC(=O)NCCOC(=O)c1cccnc1 [Example 1, N-(9,12,15-octadecatrienoyl)-2-aminoethyl nicotinate] | 198.9 mg/dL | 350.1 mg/dL | 146.6 mg/dL | 258.4 mg/dL
O=C(O)c1cccnc1 [Nicotinic acid, reference compound] | – | – | 195.4 mg/dL | 312.2 mg/dL
CC/C=C\C/C=C\C/C=C\C/C=C\C/C=C\CCCC(=O)NCCOC(=O)c1cccnc1 [Example 2, N-(5,8,11,14,17-eicosapentaenoyl)-2-aminoethyl nicotinate] | 194.8 mg/dL | 296.4 mg/dL | 130.4 mg/dL | 202.8 mg/dL
